{
  "source": "patent US20250345295A1",
  "about": "“LMK235 COMPOSITIONS AND METHODS” (UNM Rainforest Innovations, priority 2024, published 2025)",
  "system": "mice",
  "test": "Conditioned place preference (CPP) test of addictive potential",
  "format": "in vivo, mouse",
  "settings": "5 mg/kg, three conditioning days",
  "source_text": "The conditioned place preference (CPP) test was used to compare morphine and LMK235 post-drug behaviors to baseline. Time spent in their assigned drug administration chamber post-drug was divided by the time spent in the chamber during the baseline recording. A score of 1 meant that there was no difference in time spent in either chamber after dosing. A score greater than 1 meant more time was spent in the assigned drug chamber, and a score less than 1 meant less time was spent in the assigned drug chamber.\nMice were assigned either vehicle, morphine (5 mg/kg) or LMK235 (5 mg/kg) and assigned cubicle designation for groups (n=3) as follows: Vehicle-Blank, Vehicle-Striped, Morphine-Blank, Morphine-Striped, LMK-Blank, LMK-Striped. For baseline collection, mice were placed in the middle of the box and allowed access to both chambers for 15 minutes. Time spent in each chamber was recorded. For the subsequent three test days, mice were injected with their assigned drug and placed in their assigned chamber, without access to the other chamber, for 30 minutes. On the final test day, mice were placed in the middle of the box and allowed access to both chambers for 15 minutes. Time spent in each chamber was recorded.",
  "data": [
    {"smiles": "CN1CC[C@]23c4c5ccc(O)c4O[C@H]2[C@@H](O)C=C[C@H]3[C@H]1C5", "note": "[morphine]", "values": [
      {"measurement": "time in assigned drug chamber post-drug versus baseline (addictive potential)", "result": "spent more time in their assigned drug chamber"}
    ]}
  ]
}
